Laboratory results from US20170087106A1, “Method for supporting gut health” (priority 2015, published 2017).

How the values were obtained:
Type in all cases: in vivo
myeloperoxidase (MPO) = experiment: TNBS rat colitis: colonic myeloperoxidase (MPO) activity; conditions: colonic tissue, oral daily 7 days, mean ± SEM
Description: (§1) Female Wistar rats (180-200 g) were randomly assigned to nine groups (n=10). Three groups received treatment with CaPyr (20, 40 and 100 mg/kg); other three received treatment with ethyl pyruvate (20, 40 and 100 mg/kg); and the remaining was treated with sulphasalazine (30 mg/kg). All compounds were dissolved in 1 ml of carboxymethylcellulose (0.2%) in water solution, and administered daily by oral gavage. An untreated TNBS control group and a non-colitic group were included for reference, which received the vehicle used to administer the test compounds. Colonic inflammation was induced in control and treated groups as generally described (see Galvez et al. 2014). Briefly, rats were fasted overnight, anesthetized with halothane and given TNBS dissolved in 0.25 ml of 50% ethanol (v/v) by means of a Teflon cannula inserted 8 cm through the anus. During and after TNBS administration, the rats were kept in a head-down position until they recovered from anaesthesia, and then returned to their cages. Rats from the non-colitic group were administered intracolonically 0.25 ml of phosphate buffered saline instead of TNBS. The treatments were given from the day of the colitis induction until the sacrifice of the rats with an overdose of halothane, seven days later. Animal body weights, occurrence of diarrhoea, and water and food intake were recorded daily throughout all the experiments. Once the animals were sacrificed, the colon was removed aseptically and placed on an ice-cold plate, longitudinally opened and cleaned from their luminal contents with cold saline. Afterwards, it was weighed and its length measured under a constant load (2 g). Each colon was scored for macroscopically visible damage on a 0-10 scale by two observers unaware of the experiment, according to the criteria described before (see Galvez et al. 2014). Colon samples (0.5 cm^2) containing all the layers were taken from a region of the inflamed colon corresponding to the adjacent segment to the gross macroscopic damage and were fixed in 4% buffered formaldehyde for the histological studies. Equivalent colonic segments were also obtained from the non-colitic group. The colon was subsequently minced, aliquoted and kept frozen at −80° C. until biochemical determinations and RNA extraction was performed.
(§2) Myeloperoxidase (MPO) activity was measured according to the technique described previously (Krawiszet al., 1984); the results were expressed as MPO units per gram of wet tissue; one unit of MPO activity was defined as that degrading 1 μmol hydrogen peroxide/min at 25° C. Total glutathione (GSH) content was quantified with the recycling assay described by Anderson (1985), and the results were expressed as nmol/g wet tissue. In order to evaluate tissue IL-1β levels, the colonic samples were homogenized in phosphate buffered saline supplemented with 0.1% sodium dodecyl sulfate (SDS), 0.1% sodium deoxycholate, 1% Triton X-100 and protease and phosphatase inhibitors (aprotinin, leupeptin and phenylmethylsulfonyl fluoride). The cytokine was quantified by enzyme-linked immunoabsorbent assay (R&D Systems Inc., Minneapolis, Minn., USA) and the results were expressed as pg/g wet tissue.

IL-17 = experiment: TNBS rat colitis: colonic IL-17 mRNA by real-time PCR; conditions: colon, oral daily 7 days, mean ± SEM
Description: as §1
(§3) Analysis of gene expression in colonic samples by RT-qPCR Total RNA from colonic samples was isolated using Trizol® (Thermo Fisher Scientific Inc., Waltham, Mass. USA) following the manufacturer's protocol. All RNA samples were quantified with the Thermo Scientific NanoDrop™ 2000 Spectrophotometer (Thermo Fisher Scientific Inc., Waltham, Mass. USA) and […] of RNA were reverse transcribed using oligo(dT) primers (Promega, Southampton, UK).
(§4) Real time quantitative PCR amplification and detection was performed on optical-grade 48 well plates in an Eco™ Real-Time PCR System (Illumina, CA, USA) with 20 ng of cDNA, the KAPA SYBR® FAST qPCR Master Mix (Illumina, CA, USA) and specific primers at their annealing temperature (Ta). To normalize mRNA expression, the expression of the housekeeping gene, glyceraldehyde-3-phosphate dehydrogenase (GAPDH) was measured. The mRNA relative quantitation was calculated using the ΔΔCt method.

TFF-3 = experiment: TNBS rat colitis: colonic TFF-3 mRNA by real-time PCR; conditions: colon, oral daily 7 days, mean ± SEM
Description: as §1, §3, §4

IL-23 = experiment: TNBS rat colitis: colonic IL-23 mRNA by real-time PCR; conditions: colon, oral daily 7 days, mean ± SEM
Description: as §1, §3, §4

IL-12 = experiment: TNBS rat colitis: colonic IL-12 mRNA by real-time PCR; conditions: colon, oral daily 7 days, mean ± SEM
Description: as §1, §3, §4

[1] = tested on: TNBS experimental rat colitis; experiment: TNBS rat colitis: microscopic (histological) damage score; conditions: oral daily 7 days, mean ± SEM
Description: as §1
Cross-sections were selected and embedded in paraffin. Full-thickness sections of 5 μm were obtained at different levels and stained with haematoxylin and eosin. The histological damage was evaluated by a pathologist observer, who was blinded to the experimental groups, according to the criteria previously described by Galvez.

CINC-1 = experiment: TNBS rat colitis: colonic CINC-1 mRNA by real-time PCR; conditions: colon, oral daily 7 days, mean ± SEM
Description: as §1, §3, §4

iNOS = experiment: TNBS rat colitis: colonic iNOS mRNA by real-time PCR; conditions: colon, oral daily 7 days, mean ± SEM
Description: as §1, §3, §4

IL-1β [2] = experiment: TNBS rat colitis: colonic IL-1β mRNA by real-time PCR; conditions: colon, oral daily 7 days, mean ± SEM
Description: as §1, §3, §4

glutathione (GSH) = experiment: TNBS rat colitis: colonic total glutathione (GSH) content; conditions: colonic tissue, oral daily 7 days, mean ± SEM
Description: as §1, §2

IL-6 = experiment: TNBS rat colitis: colonic IL-6 mRNA by real-time PCR; conditions: colon, oral daily 7 days, mean ± SEM
Description: as §1, §3, §4

[3] = tested on: TNBS experimental rat colitis; experiment: TNBS rat colitis: colonic macroscopic damage score and weight/length ratio; conditions: for Damage Score (0-10) / Weight/length: TNBS rat colitis, oral daily 7 days, mean ± SEM; for Weight/length: colon
Description: as §1

IL-1β [4] = experiment: TNBS rat colitis: colonic IL-1β by ELISA; conditions: colonic tissue, oral daily 7 days, mean ± SEM
Description: as §1, §2

MUC-2 = experiment: TNBS rat colitis: colonic MUC-2 mRNA by real-time PCR; conditions: colon, oral daily 7 days, mean ± SEM
Description: as §1, §3, §4

MCP-1 = experiment: TNBS rat colitis: colonic MCP-1 mRNA by real-time PCR; conditions: colon, oral daily 7 days, mean ± SEM
Description: as §1, §3, §4

ICAM-1 = experiment: TNBS rat colitis: colonic ICAM-1 mRNA by real-time PCR; conditions: colon, oral daily 7 days, mean ± SEM
Description: as §1, §3, §4

O=C(O)c1cc(/N=N/c2ccc(S(=O)(=O)Nc3ccccn3)cc2)ccc1O [SAZ, sulphasalazine]
MPO (myeloperoxidase (MPO); 30 mg/kg): 82.8 ± 8.2 mU/g tissue | IL-17 mRNA expression (IL-17; 30 mg/kg): 2.22 ± 0.54 fold increase | TFF-3 mRNA expression (TFF-3; 30 mg/kg): 0.91 ± 0.12 fold increase | IL-23 mRNA expression (IL-23; 30 mg/kg): 1.26 ± 0.18 fold increase | IL-12 mRNA expression (IL-12; 30 mg/kg): 1.59 ± 0.24 fold increase | Microscopic Damage Score (0-59) ([1]; 30 mg/kg): 30 ± 5 | CINC-1 mRNA expression (CINC-1; 30 mg/kg): 4.89 ± 0.82 fold increase | iNOS mRNA expression (iNOS; 30 mg/kg): 16.47 ± 2.75 fold increase | IL-1β mRNA expression (IL-1β [2]; 30 mg/kg): 9.70 ± 0.90 fold increase | GSH (glutathione (GSH); 30 mg/kg): 900 ± 118 nmol/g tissue | IL-6 mRNA expression (IL-6; 30 mg/kg): 4.21 ± 0.80 fold increase | Damage Score (0-10) ([3]; 30 mg/kg): 6.7 ± 0.4 | Weight/length ([3]; 30 mg/kg): 180.4 ± 16.9 mg/cm | IL-1β (ELISA) (IL-1β [4]; 30 mg/kg): 840.0 ± 120.0 ng/g tissue | MUC-2 mRNA expression (MUC-2; 30 mg/kg): 0.53 ± 0.14 fold increase | MCP-1 mRNA expression (MCP-1; 30 mg/kg): 2.62 ± 0.41 fold increase | ICAM-1 mRNA expression (ICAM-1; 30 mg/kg): 2.90 ± 0.88 fold increase

calcium pyruvate [CaPyr]
MPO (myeloperoxidase (MPO); 20 mg/kg): 48.2 ± 7.2 mU/g tissue | MPO (myeloperoxidase (MPO); 40 mg/kg): 48.8 ± 8.2 mU/g tissue | MPO (myeloperoxidase (MPO); 100 mg/kg): 57.7 ± 11.5 mU/g tissue | IL-17 mRNA expression (IL-17; 20 mg/kg): 0.84 ± 0.09 fold increase | IL-17 mRNA expression (IL-17; 40 mg/kg): 0.63 ± 0.27 fold increase | IL-17 mRNA expression (IL-17; 100 mg/kg): 1.83 ± 0.48 fold increase | TFF-3 mRNA expression (TFF-3; 20 mg/kg): 0.84 ± 0.23 fold increase | TFF-3 mRNA expression (TFF-3; 40 mg/kg): 0.67 ± 0.17 fold increase | TFF-3 mRNA expression (TFF-3; 100 mg/kg): 0.99 ± 0.19 fold increase | IL-23 mRNA expression (IL-23; 20 mg/kg): 1.47 ± 0.24 fold increase | IL-23 mRNA expression (IL-23; 40 mg/kg): 1.02 ± 0.21 fold increase | IL-23 mRNA expression (IL-23; 100 mg/kg): 1.98 ± 0.30 fold increase | IL-12 mRNA expression (IL-12; 20 mg/kg): 1.09 ± 0.13 fold increase | IL-12 mRNA expression (IL-12; 40 mg/kg): 0.66 ± 0.18 fold increase | IL-12 mRNA expression (IL-12; 100 mg/kg): 1.62 ± 0.30 fold increase | Microscopic Damage Score (0-59) ([1]; 20 mg/kg): 27 ± 2 | Microscopic Damage Score (0-59) ([1]; 40 mg/kg): 18 ± 5 | Microscopic Damage Score (0-59) ([1]; 100 mg/kg): 13 ± 2 | CINC-1 mRNA expression (CINC-1; 20 mg/kg): 3.59 ± 0.49 fold increase | CINC-1 mRNA expression (CINC-1; 40 mg/kg): 2.93 ± 0.57 fold increase | CINC-1 mRNA expression (CINC-1; 100 mg/kg): 3.50 ± 0.90 fold increase | iNOS mRNA expression (iNOS; 20 mg/kg): 10.37 ± 1.83 fold increase | iNOS mRNA expression (iNOS; 40 mg/kg): 8.85 ± 3.36 fold increase | iNOS mRNA expression (iNOS; 100 mg/kg): 9.15 ± 1.53 fold increase | IL-1β mRNA expression (IL-1β [2]; 20 mg/kg): 3.90 ± 0.61 fold increase | IL-1β mRNA expression (IL-1β [2]; 40 mg/kg): 2.40 ± 0.61 fold increase | IL-1β mRNA expression (IL-1β [2]; 100 mg/kg): 4.80 ± 0.90 fold increase | GSH (glutathione (GSH); 20 mg/kg): 389 ± 55 nmol/g tissue | GSH (glutathione (GSH); 40 mg/kg): 675 ± 67 nmol/g tissue | GSH (glutathione (GSH); 100 mg/kg): 768 ± 100 nmol/g tissue | IL-6 mRNA expression (IL-6; 20 mg/kg): 5.41 ± 1.01 fold increase | IL-6 mRNA expression (IL-6; 40 mg/kg): 3.20 ± 1.20 fold increase | IL-6 mRNA expression (IL-6; 100 mg/kg): 4.61 ± 1.01 fold increase | Damage Score (0-10) ([3]; 20 mg/kg): 7.1 ± 0.4 | Damage Score (0-10) ([3]; 40 mg/kg): 5.7 ± 0.4 | Damage Score (0-10) ([3]; 100 mg/kg): 6.6 ± 0.6 | Weight/length ([3]; 20 mg/kg): 186.0 ± 22.8 mg/cm | Weight/length ([3]; 40 mg/kg): 184.6 ± 25.1 mg/cm | Weight/length ([3]; 100 mg/kg): 198.9 ± 15.0 mg/cm | effect in TNBS-induced colitis (in words) ([3]; rats, 20, 40 and 100 mg/kg body weight, 7 days oral treatment): intestinal anti-inflammatory effects | efficacy in TNBS colitis compared with the other treatments (in words) ([3]; rats, 7 days oral treatment): more effective than ethyl pyruvate and even better than the therapeutic drug Sulphasalazine | IL-1β (ELISA) (IL-1β [4]; 20 mg/kg): 1095.0 ± 165.0 ng/g tissue | IL-1β (ELISA) (IL-1β [4]; 40 mg/kg): 765.0 ± 60.0 ng/g tissue | IL-1β (ELISA) (IL-1β [4]; 100 mg/kg): 810.1 ± 120.0 ng/g tissue | MUC-2 mRNA expression (MUC-2; 20 mg/kg): 0.50 ± 0.14 fold increase | MUC-2 mRNA expression (MUC-2; 40 mg/kg): 0.53 ± 0.16 fold increase | MUC-2 mRNA expression (MUC-2; 100 mg/kg): 0.56 ± 0.11 fold increase | MCP-1 mRNA expression (MCP-1; 20 mg/kg): 3.03 ± 0.49 fold increase | MCP-1 mRNA expression (MCP-1; 40 mg/kg): 1.80 ± 0.37 fold increase | MCP-1 mRNA expression (MCP-1; 100 mg/kg): 2.13 ± 0.41 fold increase | ICAM-1 mRNA expression (ICAM-1; 20 mg/kg): 1.64 ± 0.25 fold increase | ICAM-1 mRNA expression (ICAM-1; 40 mg/kg): 0.95 ± 0.19 fold increase | ICAM-1 mRNA expression (ICAM-1; 100 mg/kg): 2.77 ± 0.44 fold increase
